Assay results reported in PMC8095338 (Neuro-oncology Advances, 2021).
“And” between values parts separate entries of the source, which are not always exact repeats. Equal entries are not always repeated. Where two headings read alike, the source gives them in different places.

Experiments:
Tissue PK, LC-MS/MS = format: in vivo, minipig; conditions: for concentration at 2 h: po
Description: (§1) WT (n = 8) and NF1 (n = 8) minipigs received a single human equivalent oral dose of 450 mg (7.3 mg/kg). Untreated WT (n = 4) and NF1 (n = 4) minipigs were also enrolled as controls. All animals were euthanized 2 h after drug administration. Tissue samples were collected from each animal at the same approximate locations and divided for analysis.
Selumetinib PK studies were performed in plasma, skin, sciatic nerve, optic nerve, and brain. Plasma isolation was performed as described in a previous study.[13] […] Tissues were harvested and immediately transferred to cryovials and stored at −80°C until analysis.
Standard curves and controls were generated using corresponding untreated tissue. Skin tissue was treated with collagenase, and all organ tissues were homogenized. Liquid extraction with ethyl acetate was then performed, followed by analysis. […] The chromatographic separation was performed as described.[13] Mass spectrometric detection was performed using multiple reaction monitoring in positive ionization mode. […] Ion source gases 1 and 2 were set at 50 and 50 psi, respectively; the curtain gas was at 20 psi and the collision gas at 4 psi. […] Data acquisition was performed with analyst 1.4.1 software (MDS-SCIEX).

[1] = cited from earlier work; for maximum tolerated dose: twice daily
DUSP6 and FOS = assay: Transcript biomarkers of MEK inhibition in tissues (RT-PCR); format: in vivo, minipig; conditions: skin, sciatic nerve, optic nerve and cerebral cortex of all treated minipigs, 2 h after single oral 7.3 mg/kg
Description: as §1
For RNA profiling, tissues were homogenized using ceramic homogenizers (Agilent 5982–9311) and a Beadblaster 24 (Benchmark D2400) for 3 cycles of 30 s each. RNA was extracted from all tissues using the RNeasy Mini kit (QIAGEN 74104) and RNA concentration and quality was measured by NanoDrop (Thermo). Analysis of transcript biomarkers of MEK inhibition was performed using the Fluidigm platform by Reverse Transcription, preamplification with pooled primers and Real Time-PCR on the Juno and BioMark using the following pig TaqMan primers (DUSP6-Ss06941845_m1; FOS -Ss03390402_m1; normalized to the average of pig housekeeping genes (B2M/Ss03391154_m1; HPRT1/Ss03388274_m1; PPIA/Ss03394782_g1; RPL13A/Ss03376908_u1; UBC/Ss03374343_g1, TFRC/Ss03391240_m1). Data were then normalized to the average of the control untreated group from matching WT or NF1 background (Log2 fold change, -ddCt).

[2] = system: ERK phosphorylation (p-ERK) in PBMCs; assay: Blood PD: p-ERK in ex vivo PMA-stimulated PBMCs (capillary western); set-up: species or system minipig; conditions: Sus scrofa, PBMC, all minipigs (WT and NF1), 2 to 5 h after single oral 7.3 mg/kg
Description: WT (n = 8) and NF1 (n = 8) minipigs received a single human equivalent oral dose of 450 mg (7.3 mg/kg).
PD analysis in blood was performed as described in a previous study, with some modifications.[13] […] Samples were stimulated with phorbol 12-myristate 13-acetate (PMA) (200 nM) or phosphate-buffered saline for 10 min at 37°C within 1 h of being drawn. Red blood cells were removed using standard ammonium-chloride-potassium (ACK) lysis. Peripheral blood mononuclear cells (PBMCs) were snap-frozen as dry pellets and stored at −80°C until analysis. Protein lysates from PBMCs were prepared as described in a previous study.[13] For tissues, protein lysates were prepared by transferring ~[…] of snap frozen tissue to a 1.7-mL microfuge tube containing radioimmunoprecipitation lysis buffer with protease and phosphatase inhibitors. The samples were then homogenized using a rotor-stator homogenizer for 2–4 cycles of 20 s and centrifuged for 10 min at 4°C. Concentrations were measured using the Pierce BCA Protein assay kit (Thermo #23227), according to the manufacturer’s instructions. […] Peaks of the appropriate molecular weight (42/44 kilodaltons) were detected in the resulting electropherograms and chemiluminescent signal was quantified by calculating the area under the peaks. The relative intensity of p-ERK to total ERK was then calculated as a ratio (p-ERK/ERK). […]

[3] = 2 h after single oral 7.3 mg/kg, P = .03
[4] = NF1 minipigs n = 8, 2 h after single oral 7.3 mg/kg
[5] = WT minipigs n = 8, 2 h after single oral 7.3 mg/kg
[6] = all 16 minipigs, 2 h after single oral 7.3 mg/kg
[7] = all 16 minipigs, 2 h after single oral 7.3 mg/kg, 7.3 mg/kg
[8] = individual NF1/F minipigs, 2 h after single oral 7.3 mg/kg, 7.3 mg/kg
[9] = individual NF1/M minipigs, 2 h after single oral 7.3 mg/kg, 7.3 mg/kg
[10] = individual WT/F minipigs, 2 h after single oral 7.3 mg/kg, 7.3 mg/kg
[11] = individual WT/M minipigs, 2 h after single oral 7.3 mg/kg, 7.3 mg/kg

Cn1cnc2c(F)c(Nc3ccc(Br)cc3Cl)c(C(=O)NOCCO)cc21 [selumetinib]
mean selumetinib concentration in cerebral cortex, NF1 compared to WT minipigs (Tissue PK, LC-MS/MS; [3]): higher | mean selumetinib concentration in optic nerve, NF1 compared to WT minipigs (Tissue PK, LC-MS/MS; [3]): higher | Selumetinib concentration in tissues, Cerebral cortex, Range (NF1) (Tissue PK, LC-MS/MS; [4]): (20-105) ng/g | Selumetinib concentration in tissues, Optic nerve, Range (NF1) (Tissue PK, LC-MS/MS; [4]): (4-101) ng/g | Selumetinib concentration in tissues, Sciatic nerve, Range (NF1) (Tissue PK, LC-MS/MS; [4]): (5-36) ng/g | Selumetinib concentration in tissues, Skin, Range (NF1) (Tissue PK, LC-MS/MS; [4]): (14-155) ng/g | Selumetinib concentration in tissues, Cerebral cortex, Range (WT) (Tissue PK, LC-MS/MS; [5]): (15-76) ng/g | Selumetinib concentration in tissues, Optic nerve, Range (WT) (Tissue PK, LC-MS/MS; [5]): (7-46) ng/g | Selumetinib concentration in tissues, Sciatic nerve, Range (WT) (Tissue PK, LC-MS/MS; [5]): (6-51) ng/g | Selumetinib concentration in tissues, Skin, Range (WT) (Tissue PK, LC-MS/MS; [5]): (9-111) ng/g | Selumetinib concentration in tissues, Cerebral cortex, Range (All) (Tissue PK, LC-MS/MS; [6]): (15-105) ng/g | Selumetinib concentration in tissues, Optic nerve, Range (All) (Tissue PK, LC-MS/MS; [6]): (4-101) ng/g | Selumetinib concentration in tissues, Sciatic nerve, Range (All) (Tissue PK, LC-MS/MS; [6]): (5-51) ng/g | Selumetinib concentration in tissues, Skin, Range (All) (Tissue PK, LC-MS/MS; [6]): (9-155) ng/g | Selumetinib concentration in tissues, Cerebral cortex, Median (All) (Tissue PK, LC-MS/MS; [7]): 51 ng/g | Selumetinib concentration in tissues, Optic nerve, Median (All) (Tissue PK, LC-MS/MS; [7]): 36 ng/g | Selumetinib concentration in tissues, Sciatic nerve, Median (All) (Tissue PK, LC-MS/MS; [7]): 25 ng/g | Selumetinib concentration in tissues, Skin, Median (All) (Tissue PK, LC-MS/MS; [7]): 24 ng/g | Selumetinib concentration in tissues, Cerebral cortex (Tissue PK, LC-MS/MS; [8]): 63 ng/g and 105 ng/g and 101 ng/g and 20 ng/g | Selumetinib concentration in tissues, Optic nerve (Tissue PK, LC-MS/MS; [8]): 43 ng/g and 81 ng/g and 101 ng/g and 4 ng/g | Selumetinib concentration in tissues, Sciatic nerve (Tissue PK, LC-MS/MS; [8]): 20 ng/g and 10 ng/g and 17 ng/g and 5 ng/g | Selumetinib concentration in tissues, Skin (Tissue PK, LC-MS/MS; [8]): 36 ng/g and 155 ng/g and 14 ng/g and 17 ng/g | Selumetinib concentration in tissues, Cerebral cortex (Tissue PK, LC-MS/MS; [9]): 67 ng/g and 83 ng/g and 28 ng/g and 64 ng/g | Selumetinib concentration in tissues, Optic nerve (Tissue PK, LC-MS/MS; [9]): 59 ng/g and 34 ng/g | Selumetinib concentration in tissues, Sciatic nerve (Tissue PK, LC-MS/MS; [9]): 36 ng/g and 33 ng/g | Selumetinib concentration in tissues, Skin (Tissue PK, LC-MS/MS; [9]): 16 ng/g and 79 ng/g and 108 ng/g and 26 ng/g | Selumetinib concentration in tissues, Cerebral cortex (Tissue PK, LC-MS/MS; [10]): 26 ng/g and 42 ng/g and 76 ng/g and 47 ng/g | Selumetinib concentration in tissues, Optic nerve (Tissue PK, LC-MS/MS; [10]): 24 ng/g and 26 ng/g and 19 ng/g and 46 ng/g | Selumetinib concentration in tissues, Sciatic nerve (Tissue PK, LC-MS/MS; [10]): 46 ng/g and 38 ng/g and 36 ng/g and 16 ng/g | Selumetinib concentration in tissues, Skin (Tissue PK, LC-MS/MS; [10]): 22 ng/g and 111 ng/g and 81 ng/g and 12 ng/g | Selumetinib concentration in tissues, Cerebral cortex (Tissue PK, LC-MS/MS; [11]): 20 ng/g and 15 ng/g and 54 ng/g and 44 ng/g | Selumetinib concentration in tissues, Optic nerve (Tissue PK, LC-MS/MS; [11]): 35 ng/g and 7 ng/g and 32 ng/g and 36 ng/g | Selumetinib concentration in tissues, Sciatic nerve (Tissue PK, LC-MS/MS; [11]): 6 ng/g and 9 ng/g and 51 ng/g and 15 ng/g | Selumetinib concentration in tissues, Skin (Tissue PK, LC-MS/MS; [11]): 9 ng/g and 19 ng/g and 32 ng/g | concentration at 2 h (Tissue PK, LC-MS/MS; male, minipig, optic nerve, 7.3 mg/kg, Selumetinib concentration in tissues, Optic nerve, individual NF1/M minipigs, 2 h after single oral 7.3 mg/kg): 43 ng/g | concentration at 2 h (Tissue PK, LC-MS/MS; male, minipig, sciatic nerve, 7.3 mg/kg, Selumetinib concentration in tissues, Sciatic nerve, individual NF1/M minipigs, 2 h after single oral 7.3 mg/kg): 29 ng/g | Kp at 2 h (Tissue PK, LC-MS/MS; minipig, brain / plasma, minipigs, single oral 7.3 mg/kg, read-out: median brain–plasma ratio): 0.1 | concentration at 2 h (Tissue PK, LC-MS/MS; minipig, cerebral cortex, 7.3 mg/kg, Selumetinib concentration in tissues, Cerebral cortex, Median (All), all 16 minipigs, 2 h after single oral 7.3 mg/kg): 66 ng/g | concentration at 2 h (Tissue PK, LC-MS/MS; minipig, cerebral cortex, 7.3 mg/kg, Selumetinib concentration in tissues, Cerebral cortex, Median (NF1), NF1 minipigs n = 8, 2 h after single oral 7.3 mg/kg): 66 ng/g | concentration at 2 h (Tissue PK, LC-MS/MS; minipig, cerebral cortex, 7.3 mg/kg, Selumetinib concentration in tissues, Cerebral cortex, Median (WT), WT minipigs n = 8, 2 h after single oral 7.3 mg/kg): 43 ng/g | concentration at 2 h (Tissue PK, LC-MS/MS; minipig, optic nerve, 7.3 mg/kg, Selumetinib concentration in tissues, Optic nerve, Median (All), all 16 minipigs, 2 h after single oral 7.3 mg/kg): 43 ng/g | concentration at 2 h (Tissue PK, LC-MS/MS; minipig, optic nerve, 7.3 mg/kg, Selumetinib concentration in tissues, Optic nerve, Median (NF1), NF1 minipigs n = 8, 2 h after single oral 7.3 mg/kg): 43 ng/g | concentration at 2 h (Tissue PK, LC-MS/MS; minipig, optic nerve, 7.3 mg/kg, Selumetinib concentration in tissues, Optic nerve, Median (WT), WT minipigs n = 8, 2 h after single oral 7.3 mg/kg): 29 ng/g | concentration at 2 h (Tissue PK, LC-MS/MS; minipig, 7.3 mg/kg, selumetinib concentration, range over all tissues, cerebral cortex, optic nerve, sciatic nerve, skin, all minipigs, 2 h after single oral 7.3 mg/kg): 4 to 155 ng/g | concentration at 2 h (Tissue PK, LC-MS/MS; minipig, sciatic nerve, 7.3 mg/kg, Selumetinib concentration in tissues, Sciatic nerve, Median (All), all 16 minipigs, 2 h after single oral 7.3 mg/kg): 23 ng/g | concentration at 2 h (Tissue PK, LC-MS/MS; minipig, sciatic nerve, 7.3 mg/kg, Selumetinib concentration in tissues, Sciatic nerve, Median (NF1), NF1 minipigs n = 8, 2 h after single oral 7.3 mg/kg): 25 ng/g | concentration at 2 h (Tissue PK, LC-MS/MS; minipig, sciatic nerve, 7.3 mg/kg, Selumetinib concentration in tissues, Sciatic nerve, Median (WT), WT minipigs n = 8, 2 h after single oral 7.3 mg/kg): 26 ng/g | concentration at 2 h (Tissue PK, LC-MS/MS; minipig, skin, 7.3 mg/kg, Selumetinib concentration in tissues, Skin, Median (All), all 16 minipigs, 2 h after single oral 7.3 mg/kg): 34 ng/g | concentration at 2 h (Tissue PK, LC-MS/MS; minipig, skin, 7.3 mg/kg, Selumetinib concentration in tissues, Skin, Median (NF1), NF1 minipigs n = 8, 2 h after single oral 7.3 mg/kg): 56 ng/g | concentration at 2 h (Tissue PK, LC-MS/MS; minipig, skin, 7.3 mg/kg, Selumetinib concentration in tissues, Skin, Median (WT), WT minipigs n = 8, 2 h after single oral 7.3 mg/kg): 21 ng/g | maximum tolerated dose ([1]; adult patients with advanced solid malignancy): 75 mg | maximum tolerated dose ([1]; pediatric patients with plexiform neurofibroma or low-grade glioma): 25 mg/m^2 | confirmed partial response ([1]; pediatric patients, 25 mg/m^2 twice daily): 70 % of pediatric patients | DUSP6 transcript expression (DUSP6 and FOS): downregulated | FOS transcript expression (DUSP6 and FOS): downregulated | inhibition at 7.3 mg/kg ([2]; read-out: maximal inhibition of p-ERK in PBMCs): ≤ 90% | inhibition at 7.3 mg/kg ([2]; read-out: mean inhibition of p-ERK in PBMCs): 60%
